According to the supplement of paper PMC11061612:

Key:
[1] = tested on: CHSA8926 (Chondrosarcoma); test: Bliss excess, mean over the matrix (fraction); higher = more synergy
Summary of the method: (§1)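 Cell lines in DMEM/F12 or RPMI with 10% FBS were plated in 1536-well plates, held 24 hours at 37°C, 5% CO2, then given two-drug dose matrices for 72 hours (DMSO typically 0.2%). Viability was read by CellTiter-Glo 2.0 luminescence and scaled as inhibition from 0 (vehicle wells) to 1 (blank wells). Combination Emax is the second-highest inhibition in the matrix; Bliss excess is observed combination effect minus expected EA + EB − EA·EB, EA and EB being single-agent effects.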

[2] = tested on: COR-L279 (Small Cell Lung Carcinoma); test: as above
Summary of the method: as §1

[3] = tested on: CW-2 (Colorectal Carcinoma); test: as above
Summary of the method: as §1

[4] = tested on: ESO51 (Esophageal Adenocarcinoma); test: as above
Summary of the method: as §1

[5] = tested on: G-361 (Melanoma); test: as above
Summary of the method: as §1

[6] = tested on: H9 (T-Cell Non-Hodgkin's Lymphoma); test: as above
Summary of the method: as §1

[7] = tested on: IM-95 (Gastric Carcinoma); test: as above
Summary of the method: as §1

[8] = tested on: JHH-4 (Hepatocellular Carcinoma); test: as above
Summary of the method: as §1

[9] = tested on: KU812 (Chronic Myelogenous Leukemia); test: as above
Summary of the method: as §1

[10] = tested on: KYSE-270 (Esophageal Squamous Cell Carcinoma); test: as above
Summary of the method: as §1

[11] = tested on: MN-60 (B-Lymphoblastic Leukemia); test: as above
Summary of the method: as §1

[12] = tested on: NCI-H2731 (Mesothelioma); test: as above
Summary of the method: as §1

[13] = tested on: NCI-H526 (Small Cell Lung Carcinoma); test: as above
Summary of the method: as §1

[14] = tested on: SK-GT-2 (Gastric Carcinoma); test: as above
Summary of the method: as §1

[15] = tested on: SK-GT-4 (Esophageal Adenocarcinoma); test: as above
Summary of the method: as §1

[16] = tested on: SU-DHL-5 (B-Cell Non-Hodgkin's Lymphoma); test: as above
Summary of the method: as §1

[17] = tested on: SUP-B15 (B-Lymphoblastic Leukemia); test: as above
Summary of the method: as §1

[18] = tested on: T-T (Esophageal Squamous Cell Carcinoma); test: as above
Summary of the method: as §1

[19] = tested on: VMRC-RCZ (Kidney Carcinoma); test: as above
Summary of the method: as §1

[20] = tested on: SK-GT-2 (Gastric Carcinoma); test: combination Emax (second highest fraction inhibited in the dose matrix, 72 h); higher = more inhibition; extreme values may be limits of the assay
Summary of the method: as §1
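Throughout, for Bliss excess, mean over the matrix: after 72 h of two-drug dosing.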

| SMILES | Bliss excess [1] | Bliss excess [2] | Bliss excess [3] | Bliss excess [4] | Bliss excess [5] | Bliss excess [6] | Bliss excess [7] | Bliss excess [8] | Bliss excess [9] | Bliss excess [10] | Bliss excess [11] | Bliss excess [12] | Bliss excess [13] | Bliss excess [14] | Bliss excess [15] | Bliss excess [16] | Bliss excess [17] | Bliss excess [18] | Bliss excess [19] | combination Emax [20] |
| --- | --- | --- | --- | --- | --- | --- | --- | --- | --- | --- | --- | --- | --- | --- | --- | --- | --- | --- | --- | --- |
| NC1(C(=O)N[C@@H](CCO)c2ccc(Cl)cc2)CCN(c2ncnc3[nH]ccc23)CC1 [Capivasertib] + COc1nnc2ccc(N3CCC(c4ccc(OCCN5CCN(C)C(=O)[C@H]5C)cc4)CC3)nn12 [AZD5153] (first compound max 10 µM, 7x7, partner max 1 µM) | 0.0617 | 0.0735 | 0.0459 | 0.0603 | 0.0218 | -0.0047 | 0.073 | 0.0028 | -0.05 | 0.124 | -0.042 | -0.0012 | -0.0213 | 0.0448 | -0.0204 | -0.0179 | 0.0274 | -0.0365 | 0.0171 | 0.362 |
| CC(=O)c1c(C)c2cnc(Nc3ccc(N4CCNCC4)cn3)nc2n(C2CCCC2)c1=O [Palbociclib] + Cc1c2c(nn1C)CSCc1cc(n(C)n1)CSc1cc(c3ccccc3c1)OCCCc1c(C(=O)O)n(C)c3c-2c(Cl)ccc13 [AZD5991] (first compound max 10 µM, 7x7, partner max 1 µM) | -0.0807 | 0.006 | -0.0111 | -0.0192 | -0.0464 | -0.0795 | -0.114 | -0.0518 | -0.0351 | -0.0804 | -0.0363 | -0.0484 | 0.0026 | -0.021 | -0.0645 | -0.0071 | -0.207 | 0.0028 | -0.026 | 0.168 |
| CC1(C)CCC(CN2CCN(c3ccc(C(=O)NS(=O)(=O)c4ccc(NCC5CCOCC5)c([N+](=O)[O-])c4)c(Oc4cnc5[nH]ccc5c4)c3)CC2)=C(c2ccc(Cl)cc2)C1 [Venetoclax] + CCN(CCO)CCCOc1ccc2c(Nc3cc(CC(=O)Nc4cccc(F)c4)[nH]n3)ncnc2c1 [AZD2811] (first compound max 1 µM, 7x7, partner max 1 µM) | 0.0042 | 0.0501 | 0.0269 | -0.0104 | -0.0163 | -0.0616 | 0.104 | -0.0152 | -0.0433 | -0.0072 | -0.0927 | -0.021 | 0.138 | 0.0136 | -0.0295 | -0.125 | 0.0132 | 0.0158 | -0.0391 | 0.155 |
| CN(CCO)CC[C@H](CSc1ccccc1)Nc1ccc(S(=O)(=O)NC(=O)c2ccc(N3CCC([C@@H](O)c4ccccc4-c4ccc(Cl)cc4)CC3)cc2)cc1S(=O)(=O)C(F)(F)F [AZD4320] + C[C@@H](Nc1cc(F)cc(F)c1)c1cc(C(=O)N(C)C)cc2c(=O)cc(N3CCOCC3)oc12 [AZD8186] (first compound max 1 µM, 7x7, partner max 3 µM) | 0.0889 | 0.0217 | -0.0073 | 0.0996 | 0.027 | 0.063 | 0.0117 | 0.0282 | 0.0161 | 0.0225 | -0.0104 | 0.0288 | 0.0434 | 0.0296 | -0.0206 | 0.0003 | 0.0179 | 0.054 | -0.0096 | 0.237 |
| COc1nnc2ccc(N3CCC(c4ccc(OCCN5CCN(C)C(=O)[C@H]5C)cc4)CC3)nn12 [AZD5153] + C=CCn1c(=O)c2cnc(Nc3ccc(N4CCN(C)CC4)cc3)nc2n1-c1cccc(C(C)(C)O)n1 [AZD1775] (first compound max 1 µM, partner max 1 µM) | 0.0085 | -0.0192 | 0.0072 | -0.0594 | -0.0271 | -0.0271 | -0.0146 | 0.0205 | -0.0632 | -0.067 | -0.067 | 0.0147 | -0.0252 | -0.0008 | -0.0369 | 0.0156 | 0.0252 | -0.029 | -0.0287 | 0.755 |
| CC(=O)c1c(C)c2cnc(Nc3ccc(N4CCNCC4)cn3)nc2n(C2CCCC2)c1=O [Palbociclib] + CC1(C)CCC(CN2CCN(c3ccc(C(=O)NS(=O)(=O)c4ccc(NCC5CCOCC5)c([N+](=O)[O-])c4)c(Oc4cnc5[nH]ccc5c4)c3)CC2)=C(c2ccc(Cl)cc2)C1 [Venetoclax] (first compound max 10 µM, 7x7, partner max 1 µM) | -0.0232 | -0.002 | 0.0067 | -0.0078 | 0.016 | -0.0394 | -0.0399 | -0.0003 | -0.0401 | -0.0349 | -0.0666 | -0.0002 | -0.0033 | -0.0342 | -0.0437 | -0.0201 | -0.0176 | -0.027 | -0.0479 | 0.0922 |
| NC1(C(=O)N[C@@H](CCO)c2ccc(Cl)cc2)CCN(c2ncnc3[nH]ccc23)CC1 [Capivasertib] + CC(=O)c1c(C)c2cnc(Nc3ccc(N4CCNCC4)cn3)nc2n(C2CCCC2)c1=O [Palbociclib] (first compound max 10 µM, 7x7, partner max 10 µM) | -0.0171 | -0.0443 | 0.0329 | -0.0475 | -0.0381 | -0.0671 | 0.0182 | -0.0242 | 0.0662 | -0.0135 | -0.0365 | -0.0008 | -0.0331 | 0.0012 | 0.0029 | 0.0287 | -0.007 | -0.0221 | 0.0321 | 0.248 |
